Earlier results on three molecules are cited in patent publication US6428772B1, “Acne treatment composition with cooling effect” (Blistex Inc., priority 2001, dated 2002).

Read-outs that look alike come from different tables or passages of the source.

Assay in series [1]: not given
This is another data set of the same source.

For series [2], the system named is histamine induced itching. Particulars: Neuroscience Letters 1995, 187:3, pp. 157-160.

In the case of `O=C(OOC(=O)c1ccccc1)c1ccccc1` [Benzoyl peroxide, benzoyl peroxide], for the setting “water”, the “solubility in water” value is on record as “sparingly soluble”. For the same molecule, the “solubility in alcohol” value in series [1] is recorded as “sparingly soluble”.
For `O=C(O)c1ccccc1O` [Salicylic acid, salicylic acid], for the setting “1 gram in about 460 ml of water”, the “pH of the solution produced” value is 2.4. Also, the “volume of water dissolving 1 gram” value (1 gram, water, room temperature) is “about 460 ml”. The “solubility in water” value is “sparingly soluble” (water) and “about 0.2 % by weight” (water, room temperature). In addition, in series [1] (1 gram), the “volume of alcohol dissolving 1 gram” value was “about 2.7 ml”.
Take `CC1CCC(C(C)C)C(O)C1` (centres unmarked) [menthol]: in series [2], the “effect on histamine induced itching” value is “effective”.
